Series [1] has as its system fused protein of DsRed and PKC having at its N terminal end a tag polypeptide indicated by sequence (A). Put plainly: Localization of PKC in cytoplasm (DsRed fluorescence). The class given is cell-based. The following applies: CHO.K1 cells treated for 10 min, final concentration 10 μM; 515 nm to 560 nm. As for the experimental part:
(§1) Separately, before treated with the permeabilization buffer, the above-prepared CHO.K1 cells were treated for 10 min with 10 mM DMSO containing PDBu (phorbol 12,13 dibutyrate; final concentration: 10 μM). The cells were observed by the fluorescence microscope similar to the above.
The following was used as a control; a group which was not treated with PDBu, and CHO.K1 cells to which only DIC was introduced (note that DIC is a vector used for introducing into cells the above-mentioned fused protein of DsRed and PKC having at its N terminal end a tag polypeptide indicated by sequence (A). The cells were observed as mentioned above at predetermined wavelength (515 nm to 560 nm). The results are shown in FIG. 11.

In series [2] the test system is fused protein of DsRed and PKC having at its N terminal end a tag polypeptide of sequence (A). Description: Imaging of PKC in cytoplasm of CHO.K1 cells through formation of tag-probe complex (observation of NBD). The series is classed as cell-based. How it is done: CHO.K1 cells expressing a fused protein of DsRed and PKC having at its N terminal end a tag polypeptide of sequence (A) as indicated below were prepared using Lipofectamin LTX (Invitrogen).
Subsequently, a permeabilization buffer (20 mM Hepes, pH 7.4, 140 mM KCl, 50 μg/mL saponin, 5 mM oxalic acid) was added to the thus-prepared CHO.K1 cells. After left to stand on ice for 10 min, the cells were washed with PBS, followed by incubating on ice for 20 min in PBS. Thereafter, the cells were incubated in PBS at room temperature for 2 min and then 37° C. for 2 min. Further, the cells were incubated at 37° C. for 30 min in a conditioned medium (Ham's F12) to which a probe indicated by sequence (B) (probe concentration: 1 μM (Final conc.)) had been added.
The medium was changed to a DMEM with no phenol red, and then, the cells were observed by a fluorescence microscope (IX81 (Olympus), objective lens: 20 times) at predetermined emission wavelength (490 nm to 510 nm).
as §1

Series [3] concerns probe peptide. Put plainly: Fluorescence titration of probe peptide with tag peptide (HEPES buffer), incl. Job's plot. The class given is binding. Particulars: for fluorescence wavelength ultimately shifted to on addition of tag peptide: 0.5 μM probe peptide, 0.1 to 2.0 equivalents of tag peptide; for Kd: tag peptide to probe peptide, theoretical formula assuming 1 to 1 interaction, fluorescence at 505 nm, read-out: dissociation constant Kd. How it is done: Fluorescence titration was performed for the tag polypeptides and the probe polypeptides of Examples 1 to 3.
In the fluorescence titration, the rate of change of the fluorescence intensity at 505 nm was plotted against the concentration of the tag peptide and the dissociation constant was calculated from a theoretical formula assuming 1 to 1 binding of the tag peptide to the probe peptide.
In Example 1, the fluorescence intensity at 505 nm in the presence of 1 equivalent of tag peptide was 18 times as high as that measured in the absence of the tag peptide.
Also in the fluorescence titration, with the total concentration of the tag peptide and the probe peptide being fixed at 1.0 μM, the ratio of the respective concentrations of the tag peptide and the probe peptide was varied and the fluorescence intensity at 505 nm was measured. The measured fluorescence intensity was plotted against the ratio of the tag peptide concentration to the total concentration of the tag peptide and the probe peptide and was analyzed by the theoretical formula assuming 1 to 1 binding of the tag peptide to the probe peptide.

A short description of series [4]: Circular dichroism spectroscopy of tag peptide, probe peptide and tag-probe mixture. The series is classed as physicochemical. Particulars: for probe peptides that formed an α-helix structure: probe peptide alone; for tag peptides that formed an α-helix structure: tag peptide alone. As for the experimental part:
The circular dichroism spectrum of the tag polypeptides and the probe polypeptides of Examples 1 to 3 were measured.
The structures of the tag peptide, the probe peptide and the tag-probe complex were analyzed by circular dichroism spectroscopy.
In each of FIGS. 3A to 3C, the horizontal axis represents wavelength used for measurement whereas the vertical axis represents molar residue ellipticity.

For series [5], the system named is probe peptide. Put plainly: Fluorescence titration in cell lysate. The class given is binding. Particulars: HeLa cell lysate, 0.1 to 4.0 equivalents of tag peptide. As for the experimental part:
Fluorescence titration was performed for the tag polypeptides and the robe polypeptides of Example 1 in a cell lysate.
10 mL of a HeLa cell culture solution containing 1.0×10^6 cells/mL were dispensed in a centrifugal tube and the cells were centrifuged for 5 minutes at 1000 rpm to obtain a pellet of HeLa cells. The pellet was dispersed in 1 mL HEPES buffer and the dispersion was sonicated for 10 minutes. Subsequently, the dispersion was filtered through a membrane filter to remove undesired materials and thus give a cell lysate. The probe peptide was dissolved in the cell lysate to a concentration of […]. To this solution, a tag peptide solution was added dropwise until the solution contained 0.1 to 4.0 equivalents of the tag peptide. The resulting solution was subjected to fluorescence spectroscopy.
In FIG. 9, the horizontal axis represents fluorescence wavelength whereas the vertical axis represents fluorescence intensity

In series [6] the test system is tag peptide represented by structural formula (8). Description: Crosslink reaction of chloroacetylated probe peptide with tag peptide. The series is classed as biochemical. Particulars: 10 minutes after start, 1.0 μM tag and 1.0 μM probe, 25° C., pH 7.2. As for the experimental part: The probe peptide for crosslink reaction obtained in Example 7 was used to perform a crosslink reaction.
The probe peptide was crosslinked to a tag peptide represented by the following structural formula (8). The tag polypeptide is identical to that used in Example 1.
To a 1.0 μM tag peptide solution (50 mM HEPES buffer (pH 7.2, 10 mM NaCl)), the probe peptide was added to a concentration of 1.0 μM and the reaction was carried out at 25° C.-1 mL samples were collected from the reaction mixture after 1, 5, 10, 15, 20 and 30 minutes. 1 mL of a 10% aqueous acetic acid solution was added to each sample to quench the reaction. The samples were analyzed by HPLC using a C18 reversed-phase analytical column (4.6×250 mm). The crosslinked product was identified by ESI-TOF MS. The yield of the reaction was calculated from the peak area ratio of HPLC.
In FIG. 10, the horizontal axis represents elapsed time after addition of the probe peptide whereas the vertical axis represents the yield of the crosslink reaction.

On to `CCCC(=O)O[C@@H]1[C@@H](C)[C@@]2(O)[C@@H](C=C(CO)C[C@]3(O)C(=O)C(C)=C[C@@H]23)[C@@H]2C(C)(C)[C@]12OC(=O)CCC` [PDBu, phorbol 12,13 dibutyrate, reference compound], for which, in series [1], the “localization of DsRed-derived fluorescence” value is “locally observed”. Also, in series [2] (CHO.K1 cells treated for 10 min, final concentration 10 μM), the “localization of NBD-derived fluorescence” value was “locally observed”.

“ALKKELEAAKKELEALKKELAGGCGGALEKELEALEKEAEALEKELA [Example 1]”: in the series with probe peptide [3], the “fluorescence wavelength ultimately shifted to on addition of tag peptide” value is on record as 505 nm and the Kd was 17.5 nM. Further, in the series with probe peptide [3] (in the presence of 1 equivalent of tag peptide), the “fluorescence intensity at 505 nm relative to that measured in the absence of the tag peptide” value came out at 18 times. Also, the “comparison of fluorescence intensity among Examples 1 to 3” value in the series with probe peptide [3] (overlapped spectra of highest peaks, FIG. 5) was “highest fluorescence intensity”. Moreover, in series [4], the “probe peptides that formed an α-helix structure” value is reported as 53%; the “tag peptides that formed an α-helix structure” value turned out to be 58%; the “tags and probes that formed an α-helix structure in the tag-probe mixture” value is given as 71%. The “spectral changes of probe peptide as tag peptide was added” value in the series on probe peptide [5] is on record as “substantially the same spectral changes as in HEPES buffer”.

On to “ALKKELEAGKKELEALKKELAGGCGGALEKELEALEKEGEALEKELA [Example 3]”, for which, in the series on probe peptide [3], the “fluorescence wavelength ultimately shifted to on addition of tag peptide” value was found to be 526 nm and the Kd is 755 nM. Also, in series [4], the “probe peptides that formed an α-helix structure” value is 53%; the “tag peptides that formed an α-helix structure” value was 18%; the “tags and probes that formed an α-helix structure in the tag-probe mixture” value is 41%.

Regarding “ALKKELEALKKELEALKKELAGGCGGALEKELEALEKELEALEKELA [Example 2]”, in the series with probe peptide [3], the “fluorescence wavelength ultimately shifted to on addition of tag peptide” value is on record as 516 nm and the Kd was 24.3 nM. In series [4], the “probe peptides that formed an α-helix structure” value came to 53%; the “tag peptides that formed an α-helix structure” value worked out at 81%; the “tags and probes that formed an α-helix structure in the tag-probe mixture” value was 78%.

With “ClAc-{Gly}{Ala-Leu-Lys-Lys-Lys-Leu-Glu}{Ala-Leu-Lys-Lys-Lys-Dap(NBD)-Glu}{Ala-Leu-Lys-Lys-Lys-Leu-Ala} [Example 7]”, in series [6], the “yield of the crosslink reaction” value was “at least 80%”. For the same molecule, the “NBD-derived fluorescence in cells” value in series [2] (1 μM probe, permeabilized CHO.K1 cells, around 510 nm) was “increase in fluorescence intensity”.
